Results on two molecules are retold here after patent US6323230A, “Use of nitrogen heterocyclic aromatic derivatives in the topical treatment of the epithelial tissues diseases” (Geange Ltd., priority 1997, dated 2001).

The nature of series [1]: Percutaneous absorption / systemically bioavailable dose from cream. It counts as in vivo. As to conditions: cream 0.05-0.1%.
Series [2] has as its system ulcerous cholitis (colon). The experiment in a line: Animal models of ulcerous cholitis. As to conditions: oral, daily, 1 mg/kg, in sesame oil 2 mg/mL. It counts as in vivo, Wistar rats. How it is done: Dealing with the activity of the compounds object of the present invention, on the inflammatory diseases of the low intestine, some compounds, namely V, VI, X and XI, were tested in animal models of ulcerous cholitis (Wallace J. L. et al., Eur. J. Pharmacol. 257, 249 (1994); Renter B. K. et al. J. Clin. Invest. 98, 2076-2085 (1996).
In particular, compound VI, when administered daily by oral route to Wistar rats, dissolved in sesame oil at the concentration of 2 mg/mL , at the dose of 1 mg/kg, did show a good activity in favouring colon ulcers repair, in re-establishing the normal thickness of the intestinal wall and in decreasing the granulocytes infiltration proper of an inflammatory condition.

Turning to `CCc1ccccc1-c1n[nH]c(-c2cccc(OC)c2)n1` [Compound XIII], the “maximum systemically bioavailable dose” value in series [1] (about 50 g, whole body surface, 25-50 mg) lay within 0.05 to 0.1 mg/kg. In addition, the Fa in series [1] (in vivo, topical or ocular, of the applied dose) was ~10%.

`COc1cccc(-c2nc(-c3ccccc3CO)n[nH]2)c1` [VI]: in series [2], the “decreasing the granulocytes infiltration” value is given as “good activity”, the “favouring colon ulcers repair” value is recorded as “good activity” and the “re-establishing the normal thickness of the intestinal wall” value was “good activity”.
